Results taken from publication PMC3466212, “Novel AChE Inhibitors for Sustainable Insecticide Resistance Management” (PLoS ONE, 2012).

What was measured:
WT AChE1 [1] = biological target: T1, WT AChE1 (Culex pipiens, UniProt Q86GC8); conditions: read-out: Kic WT; dissociation constant of enzyme-inhibitor complex; five independent replicates
Protocol: (§1) To identify inhibitors of G119S AChE1, we screened a 3,000-compound chemical library using an assay adapted to a microplate format, [26]. […] For simplification, these compounds will be termed from now as PTF (PyrimidineTrione Furan-substituted) and were classified depending on the substituted positions (Table S1).
(§2) WT and G119S recombinant AChE1s were incubated with 0.25 mM, 0.5 mM or 1 mM inhibitor. Residual activity of G119S (A and C) and WT (B and D) AChE1 was measured in the presence of various concentrations of PTF-20 and substrates. Enzymatic activity was analyzed using the graphical method developed by Dixon, representing reciprocal rates (1/v) (A and B) or reciprocal rates multiplied by substrate concentrations ([S]/v) (C and D) as a function of inhibitor concentration. (PDF) Click here for additional data file.
(§3) Table S3. Dissociation constants (Kic) of enzyme-inhibitor complexes.
(§4) a numbers refer to Table S1
(§5) b data were measured from five independent replicates.
(§6) c competitive inhibitor reference

[2] = test system: C. pipiens Slab strain larvae; assay: Larval bioassay, Slab strain (OP-susceptible); conditions: for LD50 Slab: C. pipiens OP-susceptible ace-1 S/S larvae, four to five replicates; for Mortality at 300 µM, Slab: fourth-instar larvae, 24 hours exposure
[3] = test system: C. pipiens SR strain larvae; assay: Larval bioassay, SR strain (OP-resistant); conditions: for LD50 SR: C. pipiens OP-resistant ace-1 R/R larvae; for Mortality at 300 µM, SR: fourth-instar larvae, 24 hours exposure
[4] = test system: A. gambiae Acerkis strain larvae; assay: Larval bioassay, Acerkis strain (OP-resistant); assay type: in vivo, Anopheles gambiae; conditions: A. gambiae OP-resistant ace-1 R/R larvae
From the text: (§7) Three C. pipiens strains were used: the susceptible reference Slab strain, homozygous for ace-1 ^S [39], the resistant reference SR strain, carrying the genetical background of Slab but homozygous for the G119S mutation, allele ace-1 ^R [21] and the Ducos strain, carrying the genetical background of Slab but homozygous for an ace-1 duplication, with one ace-1^S and ace-1^R copy in tandem. Culex pipiens heterozygous larvae (Slab×SR) were obtained by crossing Slab males and SR females. Two A. gambiae reference strains (S molecular form) were used: the susceptible strain Kisumu, homozygous for ace-1 ^S, collected in Kenya in 1953 and maintained since then under laboratory conditions and the resistant Acerkis strain, carrying the genetical background of Kisumu but homozygous for an ace-1^R allele from a population collected in Bobo-Dioulasso, Burkina Faso [41].
(§8) Insecticidal activity was determined by performing bioassays on fourth-instar larvae as described in [42]. Each compound was dissolved in ethanol. Propoxur (CX) and chlorpyrifos (OP) were used as references. For each compound, we first tested mortality after a 24-hour exposure at 300 µM. […] Mortality data were analyzed by the log-probit program. This program takes into account natural mortality and provides lethal doses (LD) and slopes for each mortality line; it also computes resistance ratios (RR) for each LD, with 95% confidence intervals.

G119S AChE1 [5] = biological target: T2, G119S AChE1 (Culex pipiens, UniProt Q86GC8, G247S); assay: biochemical; assay type: biochemical; conditions: recombinant OP-insensitive G119S C. pipiens AChE1; 15 min incubation; acetylthiocholine; read-out: IC50 G119S
T2 construct: made in house; host or cells: Drosophila S2 cells

F331W AChE1 = biological target: T3, F331W AChE1 (Culex pipiens, UniProt Q86GC8, F457W); assay type: biochemical; conditions: F331W OP-insensitive AChE1
T3 construct: made in house; host or cells: Drosophila S2 cells
Protocol: (§9) Production of C. pipiens WT and mutated AChE1s in Drosophila S2 cells was already described. The chemical library (ChemBridge, 3,000 compounds) screening was performed in duplicate on G119S recombinant AChE1. Chemicals were made soluble in ethanol or dimethylsulphoxide (DMSO), and then diluted at 300 µM in ethanol for storage. Compounds (30 µM final concentration) were incubated for 15 min at room temperature with 100 µl of G119S recombinant AChE1 then 100 µl of substrate (acetylthiocholine, 1.6 mM, Sigma-Aldrich) was added and the residual activity was quantified by measuring the optical density at 412 nm, as described by Ellman et al.. PTF analogs were analyzed in dose-response experiments (10-fold serial dilutions from 3 mM to 30 nM), using recombinant WT and G119S AChE1 or mosquito head extracts (heads cut from frozen mosquitoes, homogenized in 400 µl PB containing 1% Triton X-100 and cleared by centrifugation at 9,000×g for 3 min). Depending on compound availability, two to five replicates were performed with distinct batches of enzyme. […] IC50 was estimated by nonlinear least square regression. IC50 was also measured on AChE1 from susceptible and resistant mosquito larvae extracts.
as §4
(§10) b IC50 values were determined from regression analysis of log-concentrations versus

F290V AChE1 = biological target: T4, F290V AChE1 (Culex pipiens, UniProt Q86GC8, F416V); assay type: biochemical; conditions: F290V OP-insensitive AChE1
T4 construct: made in house; host or cells: Drosophila S2 cells
Protocol: as §9, §4, §10

G119S AChE1 [6] = biological target: T2, G119S AChE1; assay type: biochemical; conditions: dissociation constant of enzyme-inhibitor complex; five independent replicates; read-out: Kic G119S
Protocol: as §1
Reversibility was tested using a rapid dilution procedure. Residual activity of WT (white bars) and G119S (grey bars) AChE1 were measured after 15 min incubation in presence of inhibitors (striped bars) and are expressed as percentages of control activity. […] Assays were then diluted ten times and residual activity was measured (open bars). Means and standard errors for three independent experiments are shown. (PDF) Click here for additional data file.
as §2, §3, §4, §5, §6

[7] = test system: A. gambiae Kisumu strain larvae; assay: Larval bioassay, Kisumu strain (OP-susceptible); assay type: in vivo, Anopheles gambiae; conditions: A. gambiae OP-susceptible ace-1 S/S larvae
From the text: as §7, §8

[8] = test system: C. pipiens F1 (SR×Slab) heterozygous larvae; assay: Larval bioassay, heterozygous F1 (SR×Slab); assay type: in vivo, Culex pipiens; conditions: C. pipiens heterozygous ace-1 R/ace-1 S larvae
From the text: as §7, §8

WT AChE1 [9] = biological target: T1, WT AChE1; assay: AChE assay (Ellman), dose-response on recombinant WT AChE1; assay type: biochemical; set-up: made in house; host or cells: Drosophila S2 cells; conditions: recombinant wild-type C. pipiens AChE1; 15 min incubation; acetylthiocholine; read-out: IC50 WT
Summary of the method: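 Enzyme expressed in Drosophila S2 cells; compounds tested in 10-fold serial dilutions from 3 mM to 30 nM. Ellman read-out at 412 nm with acetylthiocholine (1.6 mM as added, after 15 min room-temperature preincubation in the screening format). IC50 by nonlinear least-squares regression; 2–5 replicates with distinct enzyme batches.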

[10] = test system: C. pipiens Ducos strain larvae; assay: Larval bioassay, Ducos strain (ace-1 duplication); assay type: in vivo, Culex pipiens; conditions: C. pipiens OP-resistant ace-1 D (duplication) larvae
From the text: as §7, §8

Row | SMILES | Ki (WT AChE1 [1]) [µM] | LD50 Slab [2] [µM] | Mortality at 300 µM, Slab [2] [%] | LD50 SR [3] [µM] | Mortality at 300 µM, SR [3] [%] | LD50 Acerkis [4] [µM] | IC50 (G119S AChE1 [5]) [µM] | IC50 (F331W AChE1) [µM] | IC50 (F290V AChE1) [µM] | Ki (G119S AChE1 [6]) [µM] | LD50 Kisumu [7] [µM] | LD50 F1 (SR×Slab) [8] [µM] | IC50 (WT AChE1 [9]) [µM] | LD50 Ducos [10] [µM]
1 | COc1ccc(N2C(=O)NC(=O)C(=Cc3ccc(C)o3)C2=O)cc1 [PTF-10] | 88.2 ± 4.2 | 300.0 | 14 | 206.0 | 87 | 50.6 | 81.4 | 88.2 | 85.9 | 64.5 ± 1.8 | 388.3 | 207.1 | 592 | 232.8
2 | Cc1cccc(N2C(=O)C(=Cc3ccc(C)o3)C(=O)NC2=S)c1 [PTF-25] | 131 ± 3.1 | 160.8 | 32 | 70.1 | 68 | 12.6 | 28.6 | 31.9 | 39.3 | 24.9 ± 0.6 | 46.1 | 60.0 | 442 | 130.8
3 | COc1cccc(N2C(=O)C(=Cc3ccc(C)o3)C(=O)NC2=S)c1 [PTF-29] | 17.1 ± 6.8 | 946.0 | 27 | 398.8 | 63 | 67.7 | 33.5 | 11.2 | 37.4 | 8.9 ± 2.7 | 164.4 | 105.1 | 118 | 409.0
